Assay results reported in patent US20210038682A1, “MODULATORS OF SMALL CONDUCTANCE CALCIUM ACTIVATED K+ CHANNELS AND PHARMACEUTICAL COMPOSITIONS FOR USE IN THE TREATMENT OF LESIONAL VESTIBULAR DISORDERS” (priority 2018, published 2021).

How the values were obtained:
UVN adult female rats [1] = assay: Subjective scoring of vestibular syndrome severity in the rat unilateral vestibular neurectomy model; type: in vivo
Method: (§1) A unilateral vestibular neurectomy (UVN) was performed on adult female rats in order to induce unilateral vestibulopathy. Then, the small conductance calcium activated K^+ channels antagonists apamin, AG525E1 and NS8593 were administered intraperitoneally to UVN animals in double blind conditions once a day for 4 days, i.e. during the acute phase of the syndrome. It was then assessed the severity of posturo-locomotor deficits using appropriate behavior tests for 10 days after UVN. Subjective scoring of the vestibular syndrome was carried out according to the method previously published (Péricat et al. 2017; Tighilet et al. 2017). […]

UVN adult female rats [2] = assay: Posturo-locomotor behavior tests (velocity, distance, immobility, meander) in the rat unilateral vestibular neurectomy model; type: in vivo; conditions: AG525E1 10 mg/kg i.p., from day 1
Method: as §1

[3] = systemic administration; cited from earlier work

For `Cl.c1ccc2c(c1)CCC[C@H]2Nc1nc2ccccc2[nH]1` [NS8593, N-[(1R)-1,2,3,4-Tetrahydro-1-naphthalenyl]-1H-benzimidazol-2-amine hydrochloride], which Vestibular syndrome severity (UVN adult female rats [1]; NS8593 30 mg/kg i.p. once a day for 4 days, at day 1 and day 2, p<0.05 vs negative control) is on record?
Its Vestibular syndrome severity is “significant decreased vestibular syndrome”.

Which results are given for `COc1cc2c(cc1OC)C(CCCC1c3cc(OC)c(OC)cc3CCN1C)N(C)CC2` (stereo not shown) [AG525E1, 1,1′-(propane-1,3-diyl)-bis-(6,7-dimethoxy-2-methyl-1,2,3,4-tetrahydroisoquinoline)]?
Immobility time (UVN adult female rats [2]): tendency to reduce immobility time; Vestibular syndrome severity (UVN adult female rats [1]; AG525E1 10 mg/kg i.p. once a day for 4 days, at day 1, p<0.05 vs negative control): significant decreased vestibular syndrome

With `CC(C)C[C@@H]1NC(=O)[C@H](C)NC(=O)[C@H]([C@@H](C)O)NC(=O)[C@H](CCC(=O)O)NC(=O)[C@@H]2CCCN2C(=O)[C@H](C)NC(=O)[C@H](CCCCN)NC(=O)[C@@H]2CSSC[C@@H](C(=O)N[C@@H](CCC(N)=O)C(=O)N[C@@H](CCC(N)=O)C(=O)N[C@@H](Cc3cnc[nH]3)C(N)=O)NC(=O)[C@H](CCCNC(=N)N)NC(=O)[C@H](CCCNC(=N)N)NC(=O)[C@H](C)NC(=O)[C@H](CSSC[C@H](N)C(=O)N[C@@H](CC(N)=O)C(=O)N2)NC1=O` [apamin] as the compound, how does the Blood-brain barrier crossing [3] read?
The Blood-brain barrier crossing was “cross the blood-brain barrier”.
